Test results as given in patent publication US20220274954A1, “SUBSTITUTED N-PHENYL-N-AMINOUARCILS AND SALTS THEREOF AND USE THEREOF AS HERBICIDAL AGENTS” (Bayer Aktiengesellschaft, priority 2019, published 2022).

How the values were obtained:
Type in all cases: in vivo
Abutilon theophrasti = test: Post-emergence herbicidal action; details: Abutilon theophrasti, 504 h, read-out: Abutilon theophrasti (efficacy in %); for pest or weed control at 5 g/ha: application rate 5 g/ha; for pest or weed control at 20 g/ha: application rate 20 g/ha
Description: (§1) Seeds of monocotyledonous and dicotyledonous weeds and crop plants were placed in sandy loam in plastic or wood-fiber pots, covered with soil and cultivated in a greenhouse under controlled growth conditions. 2 to 3 weeks after sowing, the test plants were treated at the one-leaf stage. The compounds of the invention, formulated in the form of wettable powders (WP) or as emulsion concentrates (EC), were then sprayed onto the green parts of the plants as aqueous suspension or emulsion with addition of 0.5% additive at a water application rate of […] (converted). After the test plants had been kept in the greenhouse under optimum growth conditions for about 3 weeks, the activity of the preparations was rated visually in comparison to untreated controls. For example, 100% activity=the plants have died, 0% activity=like control plants. Tables A1 to A14 below show the effects of selected compounds of the general formula (I) according to Tables I.1 to I.34 on various harmful plants and at an application rate corresponding to 20 g/ha and less, which were obtained by the experimental procedure mentioned above.

Alopecurus myosuroides = test: Post-emergence herbicidal action; details: application rate 20 g/ha
Description: as §1

Amaranthus retroflexus = test: Post-emergence herbicidal action; details: Amaranthus retroflexus, 504 h, read-out: Amaranthus retroflexus (efficacy in %); for pest or weed control at 5 g/ha: application rate 5 g/ha; for pest or weed control at 20 g/ha: application rate 20 g/ha
Description: as §1

Avena fatua = test: Post-emergence herbicidal action; details: application rate 20 g/ha
Description: as §1

Digitaria sanguinalis = test: Post-emergence herbicidal action; details: 504 h, read-out: Digitaria sanguinalis (efficacy in %); for pest or weed control at 5 g/ha: application rate 5 g/ha; for pest or weed control at 20 g/ha: application rate 20 g/ha
Description: as §1

Echinochloa crus-galli = test: Post-emergence herbicidal action; details: Echinochloa crus-galli, 504 h, read-out: Echinochloa crus-galli (efficacy in %); for pest or weed control at 5 g/ha: application rate 5 g/ha; for pest or weed control at 20 g/ha: application rate 20 g/ha
Description: as §1

Lolium rigidum = test: Post-emergence herbicidal action; details: application rate 20 g/ha
Description: as §1

Matricaria inodora = test: Post-emergence herbicidal action; details: Tripleurospermum inodorum, 504 h, read-out: Matricaria inodora (efficacy in %); for pest or weed control at 5 g/ha: application rate 5 g/ha; for pest or weed control at 20 g/ha: application rate 20 g/ha
Description: as §1

Pharbitis purpurea = test: Post-emergence herbicidal action; details: Ipomoea purpurea, 504 h, read-out: Pharbitis purpurea (efficacy in %); for pest or weed control at 5 g/ha: application rate 5 g/ha; for pest or weed control at 20 g/ha: application rate 20 g/ha
Description: as §1

Polygonum convolvulus = test: Post-emergence herbicidal action; details: Fallopia convolvulus, 504 h, read-out: Polygonum convolvulus (efficacy in %); for pest or weed control at 5 g/ha: application rate 5 g/ha; for pest or weed control at 20 g/ha: application rate 20 g/ha
Description: as §1

Setaria viridis = test: Post-emergence herbicidal action; details: 504 h, read-out: Setaria viridis (efficacy in %); for pest or weed control at 5 g/ha: application rate 5 g/ha; for pest or weed control at 20 g/ha: application rate 20 g/ha
Description: as §1

Veronica persica = test: Post-emergence herbicidal action; details: Veronica persica, 504 h, read-out: Veronica persica (efficacy in %); for pest or weed control at 5 g/ha: application rate 5 g/ha; for pest or weed control at 20 g/ha: application rate 20 g/ha
Description: as §1

Viola tricolor = test: Post-emergence herbicidal action; details: Viola tricolor, 504 h, read-out: Viola tricolor (efficacy in %); for pest or weed control at 5 g/ha: application rate 5 g/ha; for pest or weed control at 20 g/ha: application rate 20 g/ha
Description: as §1

Oryza sativa = test: Post-emergence crop plant compatibility
Description: as §1, with “plants.” for “plants. Tables A1 to A14 below show the effects of selected compounds of the general formula (I) according to Tables I.1 to I.34 on various harmful plants and at an application rate corresponding to 20 g/ha and less, which were obtained by the experimental procedure mentioned above.”
(§2) Here, the observed effects on selected crop plants are stated in comparison to the untreated controls (values in %).

Triticum aestivum = test: Post-emergence crop plant compatibility; details: application rate 1.25 g/ha
Description: as §1, with “plants.” for “plants. Tables A1 to A14 below show the effects of selected compounds of the general formula (I) according to Tables I.1 to I.34 on various harmful plants and at an application rate corresponding to 20 g/ha and less, which were obtained by the experimental procedure mentioned above.”
as §2

Zea mays = test: Post-emergence crop plant compatibility; details: application rate 1.25 g/ha
Description: as §1, with “plants.” for “plants. Tables A1 to A14 below show the effects of selected compounds of the general formula (I) according to Tables I.1 to I.34 on various harmful plants and at an application rate corresponding to 20 g/ha and less, which were obtained by the experimental procedure mentioned above.”
as §2

With `CCOCCOC(=O)COc1ncccc1Sc1cc(-n2c(=O)cc(C(F)(F)F)n(N)c2=O)c(F)cc1Cl` [I.1-2, 2-Ethoxyethyl {[3-({5-[3-amino-2,6-dioxo-4-(trifluoromethyl)-3,6-dihydropyrimidin-1(2H)-yl]-2-chloro-4-fluorophenyl}sulfanyl)pyridin-2-yl]oxy}acetate] the pest or weed control at 5 g/ha (Abutilon theophrasti) was 100%, the pest or weed control at 20 g/ha (Abutilon theophrasti) was 100% and the “Alopecurus myosuroides (efficacy in %)” value (Alopecurus myosuroides) was 100%. For the same molecule, the pest or weed control at 5 g/ha (Amaranthus retroflexus) was 100%, the pest or weed control at 20 g/ha (Amaranthus retroflexus) was 100% and the “Avena fatua (efficacy in %)” value (Avena fatua) was 80%. It also gave a pest or weed control at 5 g/ha (Digitaria sanguinalis) of 100%, a pest or weed control at 20 g/ha (Digitaria sanguinalis) of 100% and a pest or weed control at 5 g/ha (Echinochloa crus-galli) of 90%. For the same molecule, the pest or weed control at 20 g/ha (Echinochloa crus-galli) was 100%, the “Lolium rigidum (efficacy in %)” value (Lolium rigidum) was 80% and the pest or weed control at 5 g/ha (Matricaria inodora) was 100%. The pest or weed control at 20 g/ha (Matricaria inodora) was 100%, the pest or weed control at 5 g/ha (Pharbitis purpurea) was 100% and the pest or weed control at 20 g/ha (Pharbitis purpurea) was 100%. For the same molecule, the pest or weed control at 5 g/ha (Polygonum convolvulus) was 100%, the pest or weed control at 20 g/ha (Polygonum convolvulus) was 100% and the pest or weed control at 5 g/ha (Setaria viridis) was 100%. The pest or weed control at 20 g/ha (Setaria viridis) was 100%, the pest or weed control at 5 g/ha (Veronica persica) was 100% and the pest or weed control at 20 g/ha (Veronica persica) was 100%. For the same molecule, the pest or weed control at 5 g/ha (Viola tricolor) was 100%, the pest or weed control at 20 g/ha (Viola tricolor) was 100% and the “Oryza sativa (efficacy in %)” value (Oryza sativa; application rate 1.25 g/ha) was 0%. The “Oryza sativa (efficacy in %)” value (Oryza sativa; application rate 5 g/ha) was 10% and the “Triticum aestivum (efficacy in %)” value (Triticum aestivum) was 0%.

For `COCCOCCOC(=O)COc1ncccc1Sc1cc(-n2c(=O)cc(C(F)(F)F)n(N)c2=O)c(F)cc1Cl` [I.1-23, 2-(2-Methoxyethoxy)ethyl {[3-({5-[3-amino-2,6-dioxo-4-(trifluoromethyl)-3,6-dihydropyrimidin-1(2H)-yl]-2-chloro-4-fluorophenyl}sulfanyl)pyridin-2-yl]oxy}acetate], the pest or weed control at 5 g/ha (Abutilon theophrasti) was 100%, the pest or weed control at 20 g/ha (Abutilon theophrasti) was 100% and the “Alopecurus myosuroides (efficacy in %)” value (Alopecurus myosuroides) was 90%. The pest or weed control at 5 g/ha (Amaranthus retroflexus) was 100%, the pest or weed control at 20 g/ha (Amaranthus retroflexus) was 100% and the “Avena fatua (efficacy in %)” value (Avena fatua) was 100%. It also gave a pest or weed control at 5 g/ha (Digitaria sanguinalis) of 100%, a pest or weed control at 20 g/ha (Digitaria sanguinalis) of 100% and a pest or weed control at 5 g/ha (Echinochloa crus-galli) of 80%. The pest or weed control at 20 g/ha (Echinochloa crus-galli) was 100%, the “Lolium rigidum (efficacy in %)” value (Lolium rigidum) was 80% and the pest or weed control at 5 g/ha (Matricaria inodora) was 80%. The pest or weed control at 20 g/ha (Matricaria inodora) was 100%, the pest or weed control at 5 g/ha (Pharbitis purpurea) was 80% and the pest or weed control at 20 g/ha (Pharbitis purpurea) was 100%. It also gave a pest or weed control at 5 g/ha (Polygonum convolvulus) of 100%, a pest or weed control at 20 g/ha (Polygonum convolvulus) of 100% and a pest or weed control at 5 g/ha (Setaria viridis) of 100%. For the same molecule, the pest or weed control at 20 g/ha (Setaria viridis) was 100%, the pest or weed control at 5 g/ha (Veronica persica) was 100% and the pest or weed control at 20 g/ha (Veronica persica) was 100%. The pest or weed control at 5 g/ha (Viola tricolor) was 100%, the pest or weed control at 20 g/ha (Viola tricolor) was 100% and the “Oryza sativa (efficacy in %)” value (Oryza sativa; application rate 1.25 g/ha) was 20%. For the same molecule, the “Triticum aestivum (efficacy in %)” value (Triticum aestivum) was 20% and the “Zea mays (efficacy in %)” value (Zea mays) was 20%.
